The record followed here is patent US10584115B2, “Substituted pyridine and pyrazine BMI-1 inhibitors” (PTC Therapeutics, Inc., priority 2013, dated 2020).

Broadly, the EC50 is the concentration giving half of the maximal effect.

Where a name gives a salt, the structure may show the parent alone.

The subject of one assay is Bmi-1 protein. Put plainly: Sandwich ELISA Assay (Bmi-1 protein level in HT-1080 cells after compound treatment). The class given is cell-based. As to conditions: Table 1, Bmi-1 sandwich ELISA, read-out: ELISA EC50 value for Bmi-1 protein. Put shortly: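 Sandwich ELISA quantified Bmi-1 protein against recombinant standard (125–8000 pg/mL), with lysates captured overnight at 4 °C and signal by HRP/TMB at 450 nm (570 nm reference). Lysates came from HT-1080 cells incubated 40–48 h with test compounds in 0.5% DMSO.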
A general note: ELISA stands for enzyme-linked immunosorbent assay.
Consider `CCn1nc(C(F)(F)F)c(-c2cncc(Nc3ccc(OC(F)F)cc3)n2)c1C` [compound 330, N-[4-(difluoromethoxy)phenyl]-6-[1-ethyl-5-methyl-3-(trifluoromethyl)-1H-pyrazol-4-yl]pyrazin-2-amine], for which the EC50 fell in the range of 10 to 100 nM.

Turning to `Cc1nc2cc(F)c(F)cc2n1-c1cc(C#N)cc(Nc2ccc(C(F)(F)F)cc2)n1` [compound 241, 2-(5,6-difluoro-2-methyl-1H-benzimidazol-1-yl)-6-{[4-(trifluoromethyl)phenyl]amino}pyridine-4-carbonitrile], the EC50 was 10 to 100 nM.

Regarding `CCOc1nc2ccccc2n1-c1cncc(Nc2ccc(C(F)(F)F)cc2)n1` [compound 81, 6-(2-ethoxy-1H-benzimidazol-1-yl)-N-[4-(trifluoromethyl)phenyl]pyrazin-2-amine], the EC50 was 100 to 3000 nM.

Turning to `Cc1nc2ccc(F)cc2n1-c1cccc(Nc2ccc(OC(F)F)cc2)n1` [Cpd 584, N-[4-(difluoromethoxy)phenyl]-6-(6-fluoro-2-methyl-1H-benzimidazol-1-yl)pyridin-2-amine], the EC50 lay in the range of 10 to 100 nM.

Take `Fc1cnc2nc(C3CC3)n(-c3cncc(Nc4ccc(C(F)(F)F)nc4)n3)c2c1` [compound 458, 6-(2-cyclopropyl-6-fluoro-1H-imidazo[4,5-b]pyridin-1-yl)-N-[6-(trifluoromethyl)pyridin-3-yl]pyrazin-2-amine]: the EC50 fell in the range of 100 to 3000 nM.

Regarding `Cc1nc2ccccc2n1-c1c[n+]([O-])cc(Nc2ccc(C(F)(F)F)cc2)n1` [compound 525, 6-(2-methyl-1H-benzimidazol-1-yl)-N-[4-(trifluoromethyl)phenyl]pyrazin-2-amine 4-oxide], the EC50 is 10 to 100 nM.

On to `Fc1ccc2nc(C(F)(F)F)c(-c3cncc(Nc4ccc(OC(F)F)cc4)n3)n2c1` [Cpd 56, N-[4-(difluoromethoxy)phenyl]-6-[6-fluoro-2-(trifluoromethyl)imidazo[1,2-a]pyridin-3-yl]pyrazin-2-amine], for which the EC50 was in the range of 1 to 10 nM.

For the molecule `Cc1nc2cc(F)c(F)cc2n1-c1cncc(Nc2ccc(NCCO)nc2)n1` [compound 425, 2-[(5-{[6-(5,6-difluoro-2-methyl-1H-benzimidazol-1-yl)pyrazin-2-yl]amino}pyridin-2-yl)amino]ethanol], the EC50 was in the range of 10 to 100 nM.

Turning to `Cc1nc2ccc(F)cc2n1-c1cccc(Nc2ccc(C#N)cc2)n1` [Cpd 609, 4-{[6-(6-fluoro-2-methyl-1H-benzimidazol-1-yl)pyridin-2-yl]amino}benzonitrile], the EC50 was in the range of 100 to 3000 nM.

In the case of `FC(F)Oc1ccc(Nc2cccc(-c3c(C(F)(F)F)nc4ncccn34)n2)cc1` [compound 108, N-[4-(difluoromethoxy)phenyl]-6-[2-(trifluoromethyl)imidazo[1,2-a]pyrimidin-3-yl]pyridin-2-amine], the EC50 was 10 to 100 nM.

Take `Fc1ccc2nc(C(F)(F)F)c(-c3cncc(Nc4ccccc4)n3)n2c1` [compound 667, 6-[6-fluoro-2-(trifluoromethyl)imidazo[1,2-a]pyridin-3-yl]-N-phenylpyrazin-2-amine]: the EC50 lay in the range of 100 to 3000 nM.

For `Cc1nc2ccccc2n1-c1cncc(Nc2ccc(C(F)F)c(F)c2)n1` [compound 508, N-[4-(difluoromethyl)-3-fluorophenyl]-6-(2-methyl-1H-benzimidazol-1-yl)pyrazin-2-amine], the EC50 was 10 to 100 nM.

For the molecule `Cc1nc2ccc(O)cn2c1-c1cc(C#N)cc(Nc2ccc(OC(F)(F)F)cc2)n1` [compound 396, 2-(6-hydroxy-2-methylimidazo[1,2-a]pyridin-3-yl)-6-{[4-(trifluoromethoxy)phenyl]amino}pyridine-4-carbonitrile], the EC50 fell in the range of 10 to 100 nM.

As for `Cc1nc2ccccc2n1-c1cncc(Nc2ccc(B3OC(C)(C)C(C)(C)O3)cc2)n1` [compound 433, 6-(2-methyl-1H-benzimidazol-1-yl)-N-[4-(4,4,5,5-tetramethyl-1,3,2-dioxaborolan-2-yl)phenyl]pyrazin-2-amine], the EC50 is 100 to 3000 nM.

On to `FC(F)(F)c1ccc(Nc2cncc(-c3c(C(F)(F)F)nc4cnccn34)n2)cc1` [compound 93, 6-[2-(trifluoromethyl)imidazo[1,2-a]pyrazin-3-yl]-N-[4-(trifluoromethyl)phenyl]pyrazin-2-amine], for which the EC50 is 10 to 100 nM.

With `FC(F)(F)c1ccc(Nc2cncc(-c3c(C(F)(F)F)nc4ccccn34)n2)cn1` [Cpd 70, 6-[2-(trifluoromethyl)imidazo[1,2-a]pyridin-3-yl]-N-[6-(trifluoromethyl)pyridin-3-yl]pyrazin-2-amine], the EC50 lay in the range of 10 to 100 nM.

With `CCc1ccc2nc(C)n(-c3cncc(Nc4ccc(C(F)(F)F)cc4)n3)c2c1` [Cpd 392, 6-(6-ethyl-2-methyl-1H-benzimidazol-1-yl)-N-[4-(trifluoromethyl)phenyl]pyrazin-2-amine], the EC50 was 100 to 3000 nM.

As for `Cc1nc2ccccc2n1-c1cncc(Nc2ccc(C(C)N)cc2)n1` (stereo not drawn) [compound 256, N-[4-(1-aminoethyl)phenyl]-6-(2-methyl-1H-benzimidazol-1-yl)pyrazin-2-amine], the EC50 fell in the range of 100 to 3000 nM.

Regarding `O=[N+]([O-])c1cc(Nc2ccc(OC(F)F)cc2)nc(-c2c(C(F)(F)F)nc3ccccn23)c1` [compound 169, N-[4-(difluoromethoxy)phenyl]-4-nitro-6-[2-(trifluoromethyl)imidazo[1,2-a]pyridin-3-yl]pyridin-2-amine], the concentration for a half-maximal effect (EC50) lay within 10 to 100 nM.

As to `Cc1nc2ccccc2n1-c1cncc(Nc2ccc(I)cc2)n1` [compound 619, N-(4-iodophenyl)-6-(2-methyl-1H-benzimidazol-1-yl)pyrazin-2-amine], the EC50 was in the range of 1 to 10 nM.

Turning to `FC(F)(F)c1ccc(Nc2cccc(-n3c(C(F)(F)F)nc4ncccc43)n2)cc1` [compound 137, 6-[2-(trifluoromethyl)-1H-imidazo[4,5-b]pyridin-1-yl]-N-[4-(trifluoromethyl)phenyl]pyridin-2-amine], the EC50 fell in the range of 100 to 3000 nM.

Regarding `Nc1cc(Nc2ccc(C(F)(F)F)cc2)nc(-c2c(CO)nc3ccccn23)c1` [289a, [3-(4-amino-6-{[4-(trifluoromethyl)phenyl]amino}pyridin-2-yl)imidazo[1,2-a]pyridin-2-yl)methanol hydrochloride (1:2)], the EC50 is 10 to 100 nM.

Take `Cc1nc2ccccc2n1-c1cncc(Nc2ccc(C(F)(F)F)c(C#N)c2)n1` [compound 517, 5-{[6-(2-methyl-1H-benzimidazol-1-yl)pyrazin-2-yl]amino}-2-(trifluoromethyl)benzonitrile]: the EC50 was in the range of 100 to 3000 nM.

For `Ic1ccc(Nc2cncc(-n3cnc4ccccc43)n2)cc1` [compound 2, 6-(1H-benzimidazol-1-yl)-N-(4-iodophenyl)pyrazin-2-amine], the EC50 was 10 to 100 nM.

With `COc1ccc(Nc2cccc(-n3c(C)nc4cc(F)c(F)cc43)n2)cc1` [compound 613, 6-(5,6-difluoro-2-methyl-1H-benzimidazol-1-yl)-N-(4-methoxyphenyl)pyridin-2-amine], the EC50 was in the range of 10 to 100 nM.

Turning to `Cc1nc(C(F)(F)F)c(C)n1-c1cncc(Nc2ccc(C(F)(F)F)cc2)n1` [compound 318, 6-[2,5-dimethyl-4-(trifluoromethyl)-1H-imidazol-1-yl]-N-[4-(trifluoromethyl)phenyl]pyrazin-2-amine], the EC50 was 100 to 3000 nM.

Still in this assay, the particulars now being: read-out: ELISA EC50 value for Bmi-1 protein, Table 1, Bmi-1 sandwich ELISA.
For `COc1ccc(Nc2ccc(C#N)c(-c3c(C(F)(F)F)nc4ccccn34)n2)cc1` [Cpd 34, 6-[(4-methoxyphenyl)amino]-2-[2-(trifluoromethyl)imidazo[1,2-a]pyridin-3-yl]pyridine-3-carbonitrile], the EC50 fell in the range of 100 to 3000 nM.
